According to PMC12396409, “Screening and hit evaluation of a microbial metabolite library against the pathogenic Plasmodium falciparum and Toxoplasma gondii parasites” (International Journal for Parasitology: Drugs and Drug …, 2025):
Read-outs that look alike come from different tables or passages of the source.

Assays:
[1] = test system: P. falciparum 3D7 parasites; experiment: P. falciparum growth inhibition assay, 1-cycle (72 h treatment), SYBR DNA staining (library screen at 2 μg/mL and dose-response); assay type: cell-based, Plasmodium falciparum; settings: for activity at 2 µg/mL: Plasmodium falciparum
[2] = test system: P. falciparum 3D7 parasites; experiment: P. falciparum growth inhibition assay, 2-cycle (120 h treatment), delayed-death screen and dose-response; assay type: cell-based, Plasmodium falciparum; settings: for activity at 2 µg/mL: Plasmodium falciparum
[3] = test system: T. gondii RH strain (RH-Tub-eYFP) tachyzoites; experiment: microbe, parasite or virus in culture; assay type: cell-based, Toxoplasma gondii; settings: 72 h; for percent parasite growth at 2 µg/mL: Toxoplasma gondii
[4] = P. falciparum, 72 h, screen at 2 μg/mL, replicate 1
[5] = P. falciparum, 72 h, screen at 2 μg/mL, replicate 2
[6] = P. falciparum, 120 h, screen at 2 μg/mL, replicate 1
[7] = P. falciparum, 120 h, screen at 2 μg/mL, replicate 2
[8] = T. gondii, screen at 2 μg/mL, replicate 1
[9] = T. gondii, screen at 2 μg/mL, replicate 2
[10] = library screen at 2 μg/mL, 72 h, % growth, replicate 1
[11] = library screen at 2 μg/mL, 72 h, % growth, replicate 2
[12] = library screen at 2 μg/mL, 120 h, % growth, replicate 1
[13] = library screen at 2 μg/mL, 120 h, % growth, replicate 2
[14] = library screen at 2 μg/mL, % growth, replicate 1
[15] = library screen at 2 μg/mL, % growth, replicate 2

## CN[C@@H]1C[C@H]2O[C@@](C)([C@@H]1OC)n1c3ccccc3c3c4c(c5c6ccccc6n2c5c31)C(=O)NC4 [staurosporine, reference compound]
[1]; 2 μg/mL, 72 h, active = ≥80 % growth inhibition
  activity in the screen against P. falciparum: active in our screens
[1]; 3D7, 72 h, P. falciparum, 72 h, parasite screen 2 μg/mL, % growth, replicate 1, read-out: Pf_72h_%Growth_Rep1
  activity at 2 µg/mL: 9.8%
[1]; 3D7, 72 h, P. falciparum, 72 h, parasite screen 2 μg/mL, % growth, replicate 2, read-out: Pf_72h_%Growth_Rep2
  activity at 2 µg/mL: -0.94%
[2]; 3D7, 120 h, P. falciparum, 120 h, parasite screen 2 μg/mL, % growth, replicate 1, read-out: Pf_120h_%Growth_Rep1
  activity at 2 µg/mL: 10.8%
[2]; 3D7, 120 h, P. falciparum, 120 h, parasite screen 2 μg/mL, % growth, replicate 2, read-out: Pf_120h_%Growth_Rep2
  activity at 2 µg/mL: 1.05%
[3]; 2 μg/mL, active = ≥80 % growth inhibition
  activity in the screen against T. gondii: active in our screens
[3]; T. gondii, parasite screen 2 μg/mL, % growth, replicate 1, read-out: Tg_72h_%Growth_Rep1
  percent parasite growth at 2 µg/mL: 1.08%
[3]; T. gondii, parasite screen 2 μg/mL, % growth, replicate 2, read-out: Tg_72h_%Growth_Rep2
  percent parasite growth at 2 µg/mL: -0.18%

## CCOCCO[C@@H]1CC[C@@H](C[C@@H](C)[C@@H]2CC(=O)[C@H](C)/C=C(\C)[C@@H](O)[C@@H](OC)C(=O)[C@H](C)C[C@H](C)/C=C/C=C/C=C(\C)[C@@H](OC)C[C@@H]3CC[C@@H](C)[C@@](O)(O3)C(=O)C(=O)N3CCCC[C@H]3C(=O)O2)C[C@H]1OC [Umirolimus, reference compound]
[1]; P. falciparum, 72 h, 2 μg/mL, mean of both replicates, growth (% of control)
  Mean: 22.90
[1]; [4]
  Pf_72h_%Growth_Rep1: 19.04%
[1]; [5]
  Pf_72h_%Growth_Rep2: 26.75%
[2]; [6]
  Pf_120h_%Growth_Rep1: 49.79%
[2]; [7]
  Pf_120h_%Growth_Rep2: 32.58%
[3]; [8]
  Tg_72h_%Growth_Rep1: 81.37%
[3]; [9]
  Tg_72h_%Growth_Rep2: 91.74%

## Bafilomycin D
[1]; [10]
  Pf_72h_%Growth_Rep1: 3.99%
[1]; [11]
  Pf_72h_%Growth_Rep2: 4.20%
[2]; [12]
  Pf_120h_%Growth_Rep1: 2.60%
[2]; [13]
  Pf_120h_%Growth_Rep2: -8.55%
[3]; [14]
  Tg_72h_%Growth_Rep1: 0.37%
[3]; [15]
  Tg_72h_%Growth_Rep2: -0.37%

## CCCC(O)C(O)C1CC(OC)=CC(=O)O1 (stereo not drawn) [BIA-H1068]
[1]; P. falciparum 3D7, 72 h, library screen at 2 μg/mL, % growth, replicate 1
  Pf_72h_%Growth_Rep1: 88.88%
[1]; P. falciparum 3D7, 72 h, library screen at 2 μg/mL, % growth, replicate 2
  Pf_72h_%Growth_Rep2: 77.83%
[2]; P. falciparum 3D7, 120 h, library screen at 2 μg/mL, % growth, replicate 1
  Pf_120h_%Growth_Rep1: 95.79%
[2]; P. falciparum 3D7, 120 h, library screen at 2 μg/mL, % growth, replicate 2
  Pf_120h_%Growth_Rep2: 147.07%
[3]; T. gondii RH, library screen at 2 μg/mL, % growth, replicate 1
  Tg_72h_%Growth_Rep1: 107.81%
[3]; T. gondii RH, library screen at 2 μg/mL, % growth, replicate 2
  Tg_72h_%Growth_Rep2: 92.55%

## C/C=C(\C)c1cc(O)c(C)c2c1Oc1cc(O)cc(C)c1C(=O)O2 [Unguinol]
[1]; [4]
  Pf_72h_%Growth_Rep1: 95.05%
[1]; [5]
  Pf_72h_%Growth_Rep2: 130.12%
[2]; [6]
  Pf_120h_%Growth_Rep1: 111.35%
[2]; [7]
  Pf_120h_%Growth_Rep2: 108.43%
[3]; [8]
  Tg_72h_%Growth_Rep1: 147.94%
[3]; [9]
  Tg_72h_%Growth_Rep2: 82.86%

## CC[C@H](C)[C@H]1O[C@]2(C=C[C@@H]1C)C[C@@H]1C[C@@H](C/C=C(\C)[C@@H](O[C@H]3C[C@H](OC)[C@@H](O[C@H]4C[C@H](OC)[C@H](O)[C@H](C)O4)[C@H](C)O3)[C@@H](C)C=C/C=C3\CO[C@@H]4[C@H](O)C(C)C=C(C(=O)O1)[C@]34O)O2 (stereo partly drawn) [Avermectin B1a, delta2-]
[1]; [10]
  Pf_72h_%Growth_Rep1: 4.74%
[1]; [11]
  Pf_72h_%Growth_Rep2: 5.45%
[2]; [12]
  Pf_120h_%Growth_Rep1: 4.88%
[2]; [13]
  Pf_120h_%Growth_Rep2: -9.99%
[3]; [14]
  Tg_72h_%Growth_Rep1: 29.57%
[3]; [15]
  Tg_72h_%Growth_Rep2: 35.45%

## C[C@H]1O[C@H](O[C@H]2[C@H](O)[C@@H](O)[C@@H](O[C@H]3[C@H](O)[C@@H](O)C(O)O[C@@H]3CO)O[C@@H]2CO)[C@H](O)[C@@H](O)[C@@H]1N[C@H]1C=C(CO)[C@@H](O)[C@H](O)[C@H]1O (stereo partly drawn) [Acarbose]
[1]; 3D7, library screen at 2 μg/mL, 72 h, % growth, replicate 1, read-out: Pf_72h_%Growth_Rep1
  activity at 2 µg/mL: 83.3%
[1]; 3D7, library screen at 2 μg/mL, 72 h, % growth, replicate 2, read-out: Pf_72h_%Growth_Rep2
  activity at 2 µg/mL: 87.2%
[2]; 3D7, library screen at 2 μg/mL, 120 h, % growth, replicate 1, read-out: Pf_120h_%Growth_Rep1
  activity at 2 µg/mL: 85.5%
[2]; 3D7, library screen at 2 μg/mL, 120 h, % growth, replicate 2, read-out: Pf_120h_%Growth_Rep2
  activity at 2 µg/mL: 82.2%
[3]; library screen at 2 μg/mL, % growth, replicate 1, read-out: Tg_72h_%Growth_Rep1
  percent parasite growth at 2 µg/mL: 105%
[3]; library screen at 2 μg/mL, % growth, replicate 2, read-out: Tg_72h_%Growth_Rep2
  percent parasite growth at 2 µg/mL: 86.3%

## CC(=O)OCC12CC(O)C(C)=CC1OC1C(O)C(OC(C)=O)C2(C)C12CO2 (stereo not drawn) [BIA-N1931]
[1]; P. falciparum 3D7, 72 h, parasite screen at 2 μg/mL, % growth, replicate 1
  Pf_72h_%Growth_Rep1: 6.76%
[1]; P. falciparum 3D7, 72 h, parasite screen at 2 μg/mL, % growth, replicate 2
  Pf_72h_%Growth_Rep2: -0.85%
[2]; P. falciparum 3D7, 120 h, parasite screen at 2 μg/mL, % growth, replicate 1
  Pf_120h_%Growth_Rep1: 9.98%
[2]; P. falciparum 3D7, 120 h, parasite screen at 2 μg/mL, % growth, replicate 2
  Pf_120h_%Growth_Rep2: 3.84%
[3]; T. gondii, parasite screen at 2 μg/mL, % growth, replicate 1
  Tg_72h_%Growth_Rep1: 0.58%
[3]; T. gondii, parasite screen at 2 μg/mL, % growth, replicate 2
  Tg_72h_%Growth_Rep2: -0.09%
